Entries after “also recorded” stand apart in the source; their conditions may differ.
Experiments:
adenosinedeaminase (ADA) [1] = conditions: background statement; cited from earlier work
adenosinedeaminase (ADA) [2] = assay: Stability to ADA, enzymatic reaction followed by decrease in UV absorption at 265 nm; assay type: in vitro ADME; conditions: 0.1 mM compound, 75 mM phosphate buffer pH 7.5, 25° C., UV 265 nm
Description: An enzymatic reaction was carried out to test stability of the compounds to ADA. Thus, 200 μL (final concentration: 0.1 mM) of a 1 mM solution of a compound of the present invention, a control compound or Ara-A (control), 1.5 mL of a 0.1 M phosphate buffer (pH 7.5; final concentration: 75 mM) and 300 μL of a 200 units/mL enzyme solution (final concentration: […]) were placed in a UV cell and the decrease in ultraviolet absorption at 265 nm with a lapse of time was measured by an ultraviolet absorption meter. The enzymatic reaction was carried out at 25° C. As the enzymatic reaction proceeded, an ultraviolet absorption at 265 nm decreased and said rate of decrease in ultraviolet absorption was expressed as a relative enzymatic reaction rate.

[3] = system: shingles herpes virus (VZV, Kawaguchi strain); assay: Antiviral activity to shingles herpes virus, plaque numbers on HEL cells; assay type: cell-based, varicella-zoster virus; conditions: incubated one week, FIG. 1 and FIG. 2
Description: As a test for efficacy of antiviral activity, antiviral activity to shingles herpes virus was measured. Cell-free aricella-zoster virus (VZV) (Kawaguchi strain) was diluted and the resulting solution was layered on HEL cells of a 100% confluent. The layered product was placed in a CO2 incubator of 37° C., shaken every 15 minutes and infected for one hour. The virus solution was removed by suction, then DMEM containing 5% of FCS and a compound of the present invention, a control compound or Ara-A (positive control) was added thereto and the mixture was incubated for one week. The incubated mixture was fixed by formalin, dyed with Crystal Violet and numbers of plaques were measured. The inhibiting rate to shingles virus was determined from the plaque numbers of the control.

| SMILES | metabolism by ADA in the blood stream (adenosinedeaminase (ADA) [1]) | resistance (stability) to metabolism by ADA, relative enzymatic reaction rate (adenosinedeaminase (ADA) [2]) | antiviral activity to shingles virus (inhibiting rate from plaque numbers) [3] |
| --- | --- | --- | --- |
| Nc1ncnc2c1ncn2[C@@H]1O[C@H](CO)[C@@H](O)[C@@H]1O [Ara-A, Arabinosyladenine] | quickly metabolized by adenosinedeaminase (ADA) in the blood stream to hypoxanthine arabinoside |  |  |
| Cc1nc(N)c2ncn([C@@H]3O[C@H](CO)[C@@H](O)[C@@H]3O)c2n1 [control compound A, 9-(β-D-arabinofuranosyl)-2-methyladenine] |  | not satisfactory in terms of resistance to ADA; also recorded: did not show a favorable resistance to ADA | no strong antiviral action is obtained; also recorded: a sufficient antiviral action is not achieved |
| CCc1nc(N)c2ncn([C@@H]3O[C@H](CO)[C@@H](O)[C@@H]3O)c2n1 [control compound B, 9-(β-D-arabinofuranosyl)-2-ethyladenine] |  | not satisfactory in terms of resistance to ADA; also recorded: did not show a favorable resistance to ADA | no strong antiviral action is obtained; also recorded: a sufficient antiviral action is not achieved |
